# Test results published in article PMC7806712, “A novel bifunctional aldehyde/alcohol dehydrogenase catalyzing reduction of acetyl-CoA to ethanol at temperatures up to 95 °C” (Scientific Reports, 2021).
# B1: Fe-AAdh (CTN_0580) (Thermotoga neapolitana DSM 4359) (protein)
# chain: FKISCYLPTEIIFRVGAVDELEERAKKLGKKALIVTGRSSTKKTGLLQRVQDLLKKAGVESIVFDKIVPNPISDHVDEAAEIVRKEKIDFIVGLGGGSPIDSAKAISITAPNEGKFWDYVPVGGGKIPEKSIPVVAIPTTHGTGTEADPFAVITNPETKEKVGIGYRNTFPVLSLVDPEVMKTLPKDQTAYTSMDAFYHAIEAFLNVNANPYSDVLALDAMKRIVTYLPVAYENGEDMEARTNLAWASTEAGITETLTGVIANHALEHGLSGFYPEITHGLGLCITGPYLFEYIFDHAYERLAIVGREVFGVYETDDRKAGKLAIKKLRDFQEMFGLNKRLSELGVKEEDIPKMAETGYRILNGVVVVTPGNLTAKDMEEIFRRCY
# notes: full-length from genomic DNA, start Met omitted in primer (vector-encoded N-terminal residues), C-terminal His-tag kept; E. coli JM109, pHsh; heat treatment, Ni column, anaerobic
# Legend:
# [1] = biological target: T1, Aldh (CTN_1548) (Thermotoga neapolitana, UniProt B9K9U1); assay: spectrophotometric NAD(P)H formation, […] nm; format: biochemical; settings: 20 mM acetaldehyde, 1 mM NAD(P)+, no CoASH, 85 °C, various pH
# T1 construct: full-length from genomic DNA, vector-encoded N-terminal residues, C-terminal His-tag kept; E. coli JM109, pHsh; heat treatment, Ni column
# T1 sequence (B9K9U1 2-472): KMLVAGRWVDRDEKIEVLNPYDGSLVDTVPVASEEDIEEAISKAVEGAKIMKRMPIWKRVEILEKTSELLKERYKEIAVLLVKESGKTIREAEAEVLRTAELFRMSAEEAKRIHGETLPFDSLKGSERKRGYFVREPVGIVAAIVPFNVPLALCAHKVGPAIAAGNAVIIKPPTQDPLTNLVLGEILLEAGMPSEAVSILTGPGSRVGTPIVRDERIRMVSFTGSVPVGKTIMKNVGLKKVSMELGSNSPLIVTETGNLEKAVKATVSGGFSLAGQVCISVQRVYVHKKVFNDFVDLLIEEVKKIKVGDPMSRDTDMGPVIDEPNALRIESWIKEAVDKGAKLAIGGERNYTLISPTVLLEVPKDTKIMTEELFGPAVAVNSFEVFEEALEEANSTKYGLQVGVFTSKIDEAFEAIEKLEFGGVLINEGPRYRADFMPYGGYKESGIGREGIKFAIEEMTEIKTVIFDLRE
# [2] = substrate: CC(=O)SCCNC(=O)CCNC(=O)[C@H](O)C(C)(C)COP(=O)(O)OP(=O)(O)OC[C@H]1O[C@@H](n2cnc3c(N)ncnc32)[C@H](O)[C@@H]1OP(=O)(O)O; assay: purified protein; format: biochemical, Thermotoga neapolitana; settings: 0.25 mM NADPH, pH 6.5, 80 °C, reduction to acetaldehyde
Molecule,"spectrophotometric NAD(P)H formation, 340 nm [1]",Km [2]
CC=O [ac-ald],exhibited only CoA-independent activity that oxidizes ac-ald to acetic acid,–
NC(=O)c1ccc[n+]([C@@H]2O[C@H](COP(=O)(O)OP(=O)(O)OC[C@H]3O[C@@H](n4cnc5c(N)ncnc54)[C@H](O)[C@@H]3O)[C@@H](O)[C@H]2O)c1 [NAD^+],catalyzed the oxidation of aldehydes to acetic acid using either NAD^+ or NADP^+ as coenzyme,–
B1,–,1750 µM
